Laboratory results as given in US20260023087A1, “A Novel Chemogenetic Tool Permitting Modulation of Intracellular pH” (ISTANBUL MEDIPOL UNIVERSITESI, priority 2023, published 2026).

How the values were obtained:
[1] = biological target: T1, DsRed-stDCyD (Salmonella typhimurium, UniProt Q8ZNT7); experiment: SypHer3s live-cell imaging of intracellular pH in HEK293T cells expressing pH-Control, substrates administered; type: cell-based, human; settings: for selectivity test: enzyme response in comparison to βCDA: FIG. 1f; for ability to acidify cell compartments: cells expressing stDCyD
T1 construct: expressed in transfected cells; host or cells: HEK293 / HEK293T
T1 sequence (Q8ZNT7 whole entry, added parts left off): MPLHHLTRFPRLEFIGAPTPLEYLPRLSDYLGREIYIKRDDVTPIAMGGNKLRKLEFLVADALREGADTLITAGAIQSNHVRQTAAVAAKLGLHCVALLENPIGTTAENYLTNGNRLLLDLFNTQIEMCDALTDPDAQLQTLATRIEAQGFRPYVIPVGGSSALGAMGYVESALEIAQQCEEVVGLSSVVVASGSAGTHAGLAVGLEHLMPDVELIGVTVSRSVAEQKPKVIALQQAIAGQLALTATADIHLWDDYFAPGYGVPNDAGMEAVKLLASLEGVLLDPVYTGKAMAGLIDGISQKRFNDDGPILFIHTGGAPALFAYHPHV
Method: (§1) For live-cell imaging experiments, a HEPES-buffered physiological solution was used consisting of 2 mM CaCl2, 5 mM KCl, 138 mM NaCl, 1 mM MgCl2, 10 mM HEPES, 10 mM D-Glucose, and pH was adjusted to 7.43 using 1 M NaOH. For experiments with nigericin (N7143, Merck) and monensin (M5273, Merck), imaging buffered contained 5 mM KCl, 138 mM NaCl, 1 mM MgCl2, 20 mM HEPES, 10 mM D-Glucose, 0.2 mM EGTA and pH was adjusted to the desired value using either 1 M NaOH or 1M HCl. To prepare β-Chloro-D-alanine solutions, the powder was dissolved in imaging buffer and the pH was readjusted to 7.43.
(§2) Characterization studies have been performed in cultured human embryonic kidney cells (HEK293), grown in a high-glucose (4.5 g/L) complete medium including 10% FBS and 100 μg/ml streptomycin and 100 U/ml penicillin in a humidified incubator (37° C., 5% CO2). 24 hours before transfection, cells were seeded (˜3×10^5 cells per well) on a 30 mm glass coverslips No.1 (Glaswarenfabrik Karl Knecht Sondheim, Germany). At ˜70-80% confluency, cells were co-transfected with CMV-driven mammalian expression vectors (pLenti-MP2) encoding for differential targeted SypHer3s or DsRed-stDCyD enzymes using PolyJet transfection reagent according to the manufacturer's instructions. All imaging experiments were performed 24 h after transfection. HEK293T cells were cultured up to passage 30.
Widefield imaging experiments were performed on a Zeiss Axio Observer.Z1/7 (Carl Zeiss AG, Oberkochen, Germany) equipped with an LED light source Colibri 7 (423/44 nm, 469/38 nm, 555/30), PlanApochromat 20x/0.8 dry objective, Plan-Apochromat 40x/1.4 oil immersion objective, a monochrome CCD camera Axiocam 503. A custom-made pump-driven perfusion system was used to administrate and withdraw substrates to cells placed in a metal perfusion chamber (NGFI, Graz, Austria). SypHer signals were imaged by alternately exciting cells using a motorized dual-filter wheel equipped with beam splitters (FT455 (for SypHer low, F420) and FT495 (for SypHer high, F490)). Emissions were alternately collected using a bandpass filter (BP 525/50). DsRed-stDyCD emission was collected using the filter combinations FT570 (BS) and emission filter 605/70. During live-imaging data acquisition was performed using Zen Blue 3.1 Pro software (Carl Zeiss AG, Oberkochen, Germany). Confocal imaging was performed using a laser scanning confocal microscope LSM 800 (Zeiss, Germany) equipped with a Plan-Apochromat 40x/1.3 DIC (UV) VIS-IS oil immersion objective. SypHer biosensors were excited with a 488 nm and 405 nm laser, and emissions were collected using a 509 nm filter system. SypHer signals were acquired with an A GaAsP-PMT detector and 400-565 nm filter using a Multialkali-PMT detector. DsRed-stDCyD constructs were excited using a 561 nm laser, and the emission wavelength was captured between 616 and 700 nm. The digital detector gain for all channels was set at 1; detector gain was applied between 500 and 1000 V. Laser intensities were set between 0.90% and 0.95%, and the pinhole was set between 29 and 32 μm according to the expression level of the fluorescent proteins. Bright-field mode was imaged using a photodiode detector. Zen Blue 3.1 software (Zeiss, Germany) was used to determine regions of interest.

[2] = test system: HEK293T cells; experiment: SypHer3s live-cell imaging of intracellular pH in cells without the enzyme; type: cell-based, human
Method: as §1
as §2, with “30. […]” for “30.”

[3] = test system: mouse primary dorsal root ganglion (DRG) neurons; experiment: SypHer3s imaging in primary DRG neurons expressing pH-Control; type: cell-based; settings: different concentrations (10 or 1 mM, FIG. 1h)
Method: (§3) Primary Neuron Culture: WT C57BL/6 mice were euthanized via cervical dislocation. Bilateral DRGs from all segments were dissected and then put in an ice-cold RPMI 1640 medium (R0883, Gibco). For enzymatic dissociation, ganglia were incubated with 100 U/mL collagenases (C9407, Sigma) in a neural medium containing 2% B27 (17504-044, Gibco), 2 mM Glutamax-I (35050-61, Gibco), 100 U penicillin, and […] (15140-122, Gibco) in Neural Basal Medium (NBA, 10888-022, Gibco) at 37C, 5% CO2. Following a 40 min incubation time, the medium containing collagenase was removed, and the ganglia were washed using Hank's buffered salt solution (H9269, Sigma). The ganglia were further enzymatically dissociated using 1 mg/mL trypsin (25300-054, Gibco) in the neural medium for 15 min at 37° C., 5% CO2. At the end of incubation, […] DNAse (D4513, Sigma) was added to the trypsin solution cell suspension to inhibit free DNA fragments, and the tissues were triturated by pipetting to obtain single cells. 30 min after incubation at 37° C., 5% CO2, the cell suspension was spun at 120 g for 3 min and resuspended neural medium supplemented with 10% fetal calf serum and […] trypsin inhibitor (T6522, Sigma) to inhibit enzymatic activity. […]

[4] = test system: mouse primary dorsal root ganglion (DRG) neurons; experiment: Membrane potential imaging with voltage sensor ASAP2s in DRG neurons co-expressing pH-Control; type: cell-based; settings: 10 mM βCDA versus high extracellular potassium (50 mM)
Method: as §3

[5] = test system: HEK293T cells; experiment: Overcorrection of intracellular pH after acute acidification, with and without monensin and nigericin; type: cell-based, human; settings: 10 μM nigericin and 10 μM monensin together
Method: FIG. 7. Overcorrection of intracellular pH levels following acute acidification. (left) Real-time traces of HEK293T cells expressing SypHer and pH-Control in response to 1 mM βCDA in the presence (pink curve and (right) bars, n= 3/15) and absence (green curve and (right) bars n= 3/13) 10 μM nigericin and 10 μM monensin that permeabilize the plasma membrane. Student's t-test has been applied.
as §1
Widefield imaging experiments were performed on a Zeiss Axio Observer.Z1/7 (Carl Zeiss AG, Oberkochen, Germany) equipped with an LED light source Colibri 7 (423/44 nm, 469/38 nm, 555/30), PlanApochromat 20x/0.8 dry objective, Plan-Apochromat 40x/1.4 oil immersion objective, a monochrome CCD camera Axiocam 503. […]

## C[C@@H](N)C(=O)O [D-alanine]
[1]
  selectivity test: enzyme response in comparison to βCDA: remained agnostic
  ability to acidify cell compartments: not

## N[C@H](CCl)C(=O)O [βCDA, β-chloro-D-alanine]
[2]; different levels of substrate (FIG. 1e, right panel)
  SypHer response of cells only expressing SypHer: remained unresponsive
[2]; same high-concentration treatment (13.4 mM, FIG. 1c)
  SypHer3s response of wild-type cells without the enzyme: marginal response
[1]; after recovery, indicates cellular alkalization (FIGS. 1c, 1g, 5a)
  biosensor signal after withdrawal of substrate: overshot the baseline
[1]; cells expressing pH-Control, constitutive administration of different levels (FIG. 1e)
  SypHer response to different levels of substrate: concentration-dependent and fully reversible SypHer response
[1]; cells expressing pH-Control, high concentrations of βCDA (13.4 mM, FIG. 1c)
  intracellular acidification documented by SypHer3s: robust intracellular acidification
[1]
  ability to acidify cell compartments: can acidify cell compartments
[3]
  SypHer3s signals in DRG neurons: robust SypHer3s signals
[4]
  depolarization of membrane potential (ASAP2s): depolarized primary neurons even stronger than high extracellular potassium

## N[C@H](CS)C(=O)O [D-Cysteine]
[1]; 10 mM
  decrease in pHi: marginal decrease in pHi

## CC[C@@]1([C@@H]2O[C@@H]([C@H]3O[C@@](O)(CO)[C@H](C)C[C@@H]3C)C[C@@H]2C)CC[C@H]([C@]2(C)CC[C@]3(C[C@H](O)[C@@H](C)[C@@H]([C@@H](C)[C@@H](OC)[C@H](C)C(=O)O)O3)O2)O1 [monensin]
[5]
  intracellular pH overcorrection after withdrawal of 1 mM βCDA: diminished

## N[C@@H](CCl)C(=O)O [βCLA, β-chloro-L-alanine]
[1]
  selectivity test: enzyme response in comparison to βCDA: marginal responses

## CO[C@@H]1C[C@@H](C[C@H]2CC[C@H](C)[C@H]([C@@H](C)C(=O)O)O2)O[C@]2(O[C@](C)([C@H]3CC[C@@](C)([C@@H]4O[C@@H]([C@H]5O[C@@](O)(CO)[C@H](C)C[C@@H]5C)C[C@@H]4C)O3)C[C@H]2C)[C@@H]1C [nigericin]
[5]
  intracellular pH overcorrection after withdrawal of 1 mM βCDA: diminished
